≈ marks a conversion by molar mass, not a printed value. Read-outs that look alike come from different tables or passages of the source.
Assays:
Format in all cases: cell-based
Salmonella enteritidis = test: Minimum inhibitory concentration; details: Salmonella enterica, read-out: Minimum inhibitory concentration
Bacillus anthracis = test: microbe, parasite or virus in culture; details: read-out: Minimum inhibitory concentration
Escherichia coli NIHJ = test: Minimum inhibitory concentration; details: read-out: Minimum inhibitory concentration
Proteus vulgaris 1416 = test: Minimum inhibitory concentration
Proteus mirabilis 1306 = test: Minimum inhibitory concentration
Proteus vulgaris 1404 = test: Minimum inhibitory concentration
Salmonella typhi-murium = test: Minimum inhibitory concentration; details: read-out: Minimum inhibitory concentration
[1] = tested on: Staphylococcus aureus 126; test: Minimum inhibitory concentration
Proteus rettgeri 1601 = test: Minimum inhibitory concentration
Escherichia coli 704 = test: Minimum inhibitory concentration
Proteus morganii 1512 = test: Minimum inhibitory concentration
Escherichia coli 665 = test: Minimum inhibitory concentration
Klebsiella 806 = test: Minimum inhibitory concentration
[2] = tested on: Staphylococcus aureus 209 P; test: Minimum inhibitory concentration; details: read-out: Minimum inhibitory concentration
Shigella sonnei = test: Minimum inhibitory concentration; details: Hurt's infusion agar
Escherichia coli 620 = test: Minimum inhibitory concentration
Proteus mirabilis 1312 = test: Minimum inhibitory concentration
[3] = tested on: Pseudomonas aeruginosa 1016; test: Minimum inhibitory concentration
[4] = tested on: butirosin-resistant as well as butirosin-sensitive strains; test: Antibacterial activity, butirosin-resistant and butirosin-sensitive strains
[5] = tested on: Pseudomonas aeruginosa Scr.; test: Minimum inhibitory concentration; details: read-out: Minimum inhibitory concentration
[6] = tested on: Staphylococcus epidermidis; test: Minimum inhibitory concentration; details: read-out: Minimum inhibitory concentration
[7] = tested on: Staphylococcus aureus 167; test: Minimum inhibitory concentration
[8] = tested on: Staphylococcus aureus 109; test: Minimum inhibitory concentration
[9] = tested on: Bacillus subtilis PCI-219; test: Minimum inhibitory concentration
[10] = tested on: Staphylococcus aureus 163; test: Minimum inhibitory concentration
[11] = tested on: Pseudomonas aeruginosa 1100; test: Minimum inhibitory concentration
[12] = tested on: Pseudomonas schuylkilliensis; test: Minimum inhibitory concentration; details: read-out: Minimum inhibitory concentration
Klebsiella 813 = test: Minimum inhibitory concentration
Escherichia coli 605 = test: Minimum inhibitory concentration
[13] = tested on: Pseudomonas aeruginosa 1055; test: Minimum inhibitory concentration
Shigella flexneri 2a = test: Minimum inhibitory concentration; details: Hurt's infusion agar
Proteus rettgeri 1602 = test: Minimum inhibitory concentration
Proteus morganii 1501 = test: Minimum inhibitory concentration
[14] = tested on: Pseudomonas aeruginosa 1080; test: Minimum inhibitory concentration

## NCC[C@H](O)C(=O)N[C@@H]1C[C@H](N)[C@@H](O[C@H]2O[C@H](CN)CC[C@H]2N)[C@H](O[C@@H]2O[C@H](CN)[C@H](O)[C@H]2O)[C@H]1O [ATBA, 5"-amino-3',4',5"-trideoxybutirosin A]
Salmonella enteritidis; Salmonella enteritidis, Hurt's infusion agar
  MIC: 6.2 µg/mL (≈ 11.9 µM)
Bacillus anthracis
  MIC: 0.1 µg/mL (≈ 0.191 µM)
Escherichia coli NIHJ; Escherichia coli NIHJ, Hurt's infusion agar
  MIC: 3.1 µg/mL (≈ 5.93 µM)
Proteus vulgaris 1416; Proteus vulgaris 1416, Hurt's infusion agar, read-out: Minimum inhibitory concentration
  MIC: 50 µg/mL (≈ 95.7 µM)
Proteus mirabilis 1306; Proteus mirabilis 1306, Hurt's infusion agar, read-out: Minimum inhibitory concentration
  MIC: 25 µg/mL (≈ 47.8 µM)
Proteus vulgaris 1404; Proteus vulgaris 1404, Hurt's infusion agar, read-out: Minimum inhibitory concentration
  MIC: 6.2 µg/mL (≈ 11.9 µM)
Salmonella typhi-murium
  MIC: 6.2 µg/mL (≈ 11.9 µM)
[1]; Staphylococcus aureus 126, Hurt's infusion agar, read-out: Minimum inhibitory concentration
  MIC: 1.5 µg/mL (≈ 2.87 µM)
Proteus rettgeri 1601; Providencia rettgeri, Proteus rettgeri 1601, Hurt's infusion agar, read-out: Minimum inhibitory concentration
  MIC: 1.5 µg/mL (≈ 2.87 µM)
Escherichia coli 704; Escherichia coli 704, Hurt's infusion agar, read-out: Minimum inhibitory concentration
  MIC: 6.2 µg/mL (≈ 11.9 µM)
Proteus morganii 1512; Morganella morganii, Proteus morganii 1512, Hurt's infusion agar, read-out: Minimum inhibitory concentration
  MIC: 3.1 µg/mL (≈ 5.93 µM)
Escherichia coli 665; Escherichia coli 665, Hurt's infusion agar, read-out: Minimum inhibitory concentration
  MIC: 12.5 µg/mL (≈ 23.9 µM)
Klebsiella 806; Klebsiella 806, Hurt's infusion agar, read-out: Minimum inhibitory concentration
  MIC: 6.2 µg/mL (≈ 11.9 µM)
[2]; Staphylococcus aureus 209 P, Hurt's infusion agar
  MIC: 0.2 µg/mL (≈ 0.383 µM)
Shigella sonnei
  MIC: 3.1 µg/mL (≈ 5.93 µM)
Escherichia coli 620; Escherichia coli 620, Hurt's infusion agar, read-out: Minimum inhibitory concentration
  MIC: 12.5 µg/mL (≈ 23.9 µM)
Proteus mirabilis 1312; Proteus mirabilis 1312, Hurt's infusion agar, read-out: Minimum inhibitory concentration
  MIC: 50 µg/mL (≈ 95.7 µM)
[3]; Pseudomonas aeruginosa 1016, Hurt's infusion agar, read-out: Minimum inhibitory concentration
  MIC: 3.1 µg/mL (≈ 5.93 µM)
[4]
  antibacterial activity (in words): extremely active
[5]; Pseudomonas aeruginosa Scr., Hurt's infusion agar
  MIC: 1.5 µg/mL (≈ 2.87 µM)
[6]; Hurt's infusion agar
  MIC: 1.5 µg/mL (≈ 2.87 µM)
[7]; Staphylococcus aureus 167, Hurt's infusion agar, read-out: Minimum inhibitory concentration
  MIC: 0.1 µg/mL (≈ 0.191 µM)
[8]; Staphylococcus aureus 109, Hurt's infusion agar, read-out: Minimum inhibitory concentration
  MIC: 3.1 µg/mL (≈ 5.93 µM)
[9]; PCI219, Bacillus subtilis PCI-219, Hurt's infusion agar, read-out: Minimum inhibitory concentration
  MIC: 0.1 µg/mL (≈ 0.191 µM)
[10]; Staphylococcus aureus 163, Hurt's infusion agar, read-out: Minimum inhibitory concentration
  MIC: 25 µg/mL (≈ 47.8 µM)
[11]; Pseudomonas aeruginosa 1100, Hurt's infusion agar, read-out: Minimum inhibitory concentration
  MIC: 25 µg/mL (≈ 47.8 µM)
[12]; Pseudomonas schuylkilliensis, Hurt's infusion agar
  MIC: 6.2 µg/mL (≈ 11.9 µM)
Klebsiella 813; Klebsiella 813, Hurt's infusion agar, read-out: Minimum inhibitory concentration
  MIC: 25 µg/mL (≈ 47.8 µM)
Escherichia coli 605; Escherichia coli 605, Hurt's infusion agar, read-out: Minimum inhibitory concentration
  MIC: 25 µg/mL (≈ 47.8 µM)
[13]; Pseudomonas aeruginosa 1055, Hurt's infusion agar, read-out: Minimum inhibitory concentration
  MIC: 6.2 µg/mL (≈ 11.9 µM)
Shigella flexneri 2a
  MIC: 3.1 µg/mL (≈ 5.93 µM)
Proteus rettgeri 1602; Providencia rettgeri, Proteus rettgeri 1602, Hurt's infusion agar, read-out: Minimum inhibitory concentration
  MIC: 12.5 µg/mL (≈ 23.9 µM)
Proteus morganii 1501; Morganella morganii, Proteus morganii 1501, Hurt's infusion agar, read-out: Minimum inhibitory concentration
  MIC: 1.5 µg/mL (≈ 2.87 µM)
[14]; Pseudomonas aeruginosa 1080, Hurt's infusion agar, read-out: Minimum inhibitory concentration
  MIC: 100 µg/mL (≈ 191 µM)

## NCC[C@H](O)C(=O)N[C@@H]1C[C@H](N)[C@@H](O[C@H]2O[C@H](CN)[C@@H](O)[C@H](O)[C@H]2N)[C@H](O[C@@H]2O[C@H](CO)[C@H](O)[C@H]2O)[C@H]1O [BA, butirosin A, reference compound]
Salmonella enteritidis; ENTERITIDIS
  MIC: 12.5 µg/mL (≈ 22.5 µM)
Bacillus anthracis
  MIC: 0.8 µg/mL (≈ 1.44 µM)
Escherichia coli NIHJ; Escherichia coli
  MIC: 3.1 µg/mL (≈ 5.58 µM)
Proteus vulgaris 1416; Proteus vulgaris, 1416, read-out: Minimum inhibitory concentration
  MIC: 100 µg/mL (≈ 180 µM)
Proteus mirabilis 1306; Proteus mirabilis, 1306, read-out: Minimum inhibitory concentration
  MIC: 50 µg/mL (≈ 90 µM)
Proteus vulgaris 1404; Proteus vulgaris, 1404, read-out: Minimum inhibitory concentration
  MIC: 25 µg/mL (≈ 45 µM)
Salmonella typhi-murium; Salmonella typhi-murium, Hurt's infusion agar
  MIC: 12.5 µg/mL (≈ 22.5 µM)
[1]; Staphylococcus aureus, 126, read-out: Minimum inhibitory concentration
  MIC: 6.5 µg/mL (≈ 11.7 µM)
Proteus rettgeri 1601; Providencia rettgeri, 1601, read-out: Minimum inhibitory concentration
  MIC: 6.2 µg/mL (≈ 11.2 µM)
Escherichia coli 704; Escherichia coli, 704, read-out: Minimum inhibitory concentration
  MIC: 12.5 µg/mL (≈ 22.5 µM)
Proteus morganii 1512; Morganella morganii, 1512, read-out: Minimum inhibitory concentration
  MIC: 25 µg/mL (≈ 45 µM)
Escherichia coli 665; Escherichia coli, 665, read-out: Minimum inhibitory concentration
  MIC: > 200 µg/mL
Klebsiella 806; Klebsiella, 806, read-out: Minimum inhibitory concentration
  MIC: 3.1 µg/mL (≈ 5.58 µM)
[2]; Staphylococcus aureus, 209P
  MIC: 1.5 µg/mL (≈ 2.7 µM)
Shigella sonnei
  MIC: 6.2 µg/mL (≈ 11.2 µM)
Escherichia coli 620; Escherichia coli, 620, read-out: Minimum inhibitory concentration
  MIC: > 200 µg/mL
Proteus mirabilis 1312; Proteus mirabilis, 1312, read-out: Minimum inhibitory concentration
  MIC: 100 µg/mL (≈ 180 µM)
[3]; Pseudomonas aeruginosa, 1016, read-out: Minimum inhibitory concentration
  MIC: > 200 µg/mL
[5]; Pseudomonas aeruginosa
  MIC: 12.5 µg/mL (≈ 22.5 µM)
[6]
  MIC: 0.4 µg/mL (≈ 0.72 µM)
[7]; Staphylococcus aureus, 167, read-out: Minimum inhibitory concentration
  MIC: 200 µg/mL (≈ 360 µM)
[8]; Staphylococcus aureus, 109, read-out: Minimum inhibitory concentration
  MIC: > 200 µg/mL
[9]; Bacillus subtilis, PCI219, read-out: Minimum inhibitory concentration
  MIC: 0.4 µg/mL (≈ 0.72 µM)
[10]; Staphylococcus aureus, 163, read-out: Minimum inhibitory concentration
  MIC: > 200 µg/mL
[11]; Pseudomonas aeruginosa, 1100, read-out: Minimum inhibitory concentration
  MIC: > 200 µg/mL
[12]; Pseudomonas
  MIC: 25 µg/mL (≈ 45 µM)
Klebsiella 813; Klebsiella, 813, read-out: Minimum inhibitory concentration
  MIC: 50 µg/mL (≈ 90 µM)
Escherichia coli 605; Escherichia coli, 605, read-out: Minimum inhibitory concentration
  MIC: > 200 µg/mL
[13]; Pseudomonas aeruginosa, 1055, read-out: Minimum inhibitory concentration
  MIC: > 200 µg/mL
Shigella flexneri 2a
  MIC: 6.2 µg/mL (≈ 11.2 µM)
Proteus rettgeri 1602; Providencia rettgeri, 1602, read-out: Minimum inhibitory concentration
  MIC: > 200 µg/mL
Proteus morganii 1501; Morganella morganii, 1501, read-out: Minimum inhibitory concentration
  MIC: 3.1 µg/mL (≈ 5.58 µM)
[14]; Pseudomonas aeruginosa, 1080, read-out: Minimum inhibitory concentration
  MIC: > 200 µg/mL
